In patent US20250122174A1 (Shenzhen Yuanli Shenwan Innovative Medicine Co., Ltd., priority 2022, published 2025) one finds IC50 data, which are given here for 19 molecules.

One may read the pIC50 as the negative decadic logarithm of the IC50, by convention in mol/L.

pIC50: −log10 of the molar value. Where only a bound is given, the exact number is not on record here.

The test deals with HPK1 (Homo sapiens (Human), UniProt Q92918). In words: HPK1 Inhibition Assay (ADP-Glo kinase assay). Format: biochemical. To be noted: ATP 10 μM. An outline of the steps: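 ADP-Glo luminescence read-out after 1 h room-temperature kinase reaction with 10 μM ATP and 0.1 μg/ml MBP. Recombinant human HPK1 at 7.5 ng/μl; buffer 40 mM Tris pH 7.5, 20 mM MgCl2. Compounds serially diluted 5-fold over 10 points from 10 mM DMSO stock.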
Chain of HPK1 (Q92918 1-346 limits assumed): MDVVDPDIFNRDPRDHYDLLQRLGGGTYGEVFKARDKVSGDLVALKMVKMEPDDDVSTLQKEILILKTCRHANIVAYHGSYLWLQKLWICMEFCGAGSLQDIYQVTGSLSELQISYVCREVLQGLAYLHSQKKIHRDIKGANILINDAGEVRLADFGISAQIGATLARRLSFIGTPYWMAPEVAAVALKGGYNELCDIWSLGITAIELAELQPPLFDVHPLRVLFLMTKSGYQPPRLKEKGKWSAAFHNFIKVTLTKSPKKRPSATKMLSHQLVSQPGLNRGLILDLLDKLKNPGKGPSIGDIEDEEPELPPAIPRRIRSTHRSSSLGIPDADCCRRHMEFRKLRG
As to `Cn1cc2c(N3CCC(N)CC3)c(NC(=O)c3ccc(=O)n(-c4c(F)cccc4F)n3)ccc2n1` [Example 177, N-(4-(4-aminopiperidin-1-yl)-2-methyl-2H-indazol-5-yl)-1-(2,6-difluorophenyl)-6-oxo-1,6-dihydropyridazine-3-carboxamide], the negative logarithm of the IC50 (pIC50) is > 7.00.

As for `[2H]C([2H])([2H])n1cc2c(N3C[C@@H](C)[C@@H](N)C3)c(NC(=O)c3ccc(=O)n(-c4c(F)cccc4F)n3)ccc2n1` [Example 178, N-(4-((3R,4R)-3-amino-4-methylpyrrolidin-1-yl)-2-(methyl-d3)-2H-indazol-5-yl)-1-(2,6-difluorophenyl)-6-oxo-1,6-dihydropyridazine-3-carboxamide], the pIC50 was > 7.00.

As for `CC(C)n1ncc2c(N3CC[C@@H](N)C3)c(NC(=O)c3ccc(=O)n(-c4c(F)cccc4F)n3)ccc21` [Example 179, N-[4-[(3R)-3-aminopyrrolidin-1-yl]-1-isopropyl-indazol-5-yl]-1-(2,6-difluorophenyl)-6-oxo-pyridazine-3-carboxamide], the negative-log IC50 (pIC50) is > 7.00.

For the molecule `CC(C)n1ncc2c(N3C[C@@H](C)[C@@H](N)C3)c(NC(=O)c3ccc(=O)n(-c4c(F)cccc4F)n3)ccc21` [Example 180, N-(4-((3R,4R)-3-amino-4-methylpyrrolidin-1-yl)-1-isopropyl-1H-indazol-5-yl)-1-(2,6-difluorophenyl)-6-oxo-1,6-dihydropyridazine-3-carboxamide], the negative-log IC50 (pIC50) is > 7.00.

For `CC(C)n1ncc2c(N3CCC[C@@H]3CN)c(NC(=O)c3ccc(=O)n(-c4c(F)cccc4F)n3)ccc21` [Example 181, (R)-N-(4-(2-(aminomethyl)pyrrolidin-1-yl)-1-isopropyl-1H-indazol-5-yl)-1-(2,6-difluorophenyl)-6-oxo-1,6-dihydropyridazine-3-carboxamide], the negative logarithm of the IC50 (pIC50) is > 7.00.

`CC(C)n1ncc2c(N3C[C@H](N)C4(CC4)C3)c(NC(=O)c3ccc(=O)n(-c4c(F)cccc4F)n3)ccc21` [Example 182, (R)-N-(4-(7-amino-5-azaspiro[2.4]heptan-5-yl)-1-isopropyl-1H-indazol-5-yl)-1-(2,6-difluorophenyl)-6-oxo-1,6-dihydropyridazine-3-carboxamide]: the pIC50 is > 7.00.

As to `CC(C)n1ncc2c(N3CCC[C@@H](N)C3)c(NC(=O)c3ccc(=O)n(-c4c(F)cccc4F)n3)ccc21` [Example 183, (R)-N-(4-(3-aminopiperidin-1-yl)-1-isopropyl-1H-indazol-5-yl)-1-(2,6-difluorophenyl)-6-oxo-1,6-dihydropyridazine-3-carboxamide], the pIC50 is > 7.00.

As to `Cc1cc(NC(=O)c2ccc(=O)n(-c3c(F)cccc3F)n2)c(N2CC[C@@H](N)C2)c2cnn(C(C)C)c12` [Example 185, (R)-N-(4-(3-aminopyrrolidin-1-yl)-1-isopropyl-7-methyl-1H-indazol-5-yl)-1-(2,6-difluorophenyl)-6-oxo-1,6-dihydropyridazine-3-carboxamide], the pIC50 was > 7.00.

In the case of `CC(C)n1ncc2c(N3C[C@H](N)C(C)(C)C3)c(NC(=O)c3ccc(=O)n(-c4c(F)cccc4F)n3)ccc21` [Example 186, (R)-N-(4-(4-amino-3,3-dimethylpyrrolidin-1-yl)-1-isopropyl-1H-indazol-5-yl)-1-(2,6-difluorophenyl)-6-oxo-1,6-dihydropyridazine-3-carboxamide], the negative logarithm of the IC50 (pIC50) is > 7.00.

As to `CC(C)n1ncc2c(N3C[C@@H](N)C(C)(C)C3)c(NC(=O)c3ccc(=O)n(-c4c(F)cccc4F)n3)ccc21` [Example 187, (S)-N-(4-(4-amino-3,3-dimethylpyrrolidin-1-yl)-1-isopropyl-1H-indazol-5-yl)-1-(2,6-difluorophenyl)-6-oxo-1,6-dihydropyridazine-3-carboxamide], the negative logarithm of the IC50 (pIC50) is > 7.00.

For `CC(C)n1ncc2c(N3CC[C@@H](N)C3)c(NC(=O)c3ccc(=O)n(-c4c(F)cccc4F)n3)cc(F)c21` [Example 188, (R)-N-(4-(3-aminopyrrolidin-1-yl)-7-fluoro-1-isopropyl-1H-indazol-5-yl)-1-(2,6-difluorophenyl)-6-oxo-1,6-dihydropyridazine-3-carboxamide], the pIC50 was > 7.00.

In the case of `CC(C)n1ncc2c(N3C[C@H](N)C4(CC4)C3)c(NC(=O)c3ccc(=O)n(-c4c(F)cccc4F)n3)cc(F)c21` [Example 189, (R)-N-(4-(7-amino-5-azaspiro[2.4]heptan-5-yl)-7-fluoro-1-isopropyl-1H-indazol-5-yl)-1-(2,6-difluorophenyl)-6-oxo-1,6-dihydropyridazine-3-carboxamide], the negative logarithm of the IC50 (pIC50) is > 7.00.

`CC(C)n1nc(Cl)c2c(N3CC[C@@H](N)C3)c(NC(=O)c3ccc(=O)n(-c4c(F)cccc4F)n3)cc(F)c21` [Example 190, (R)-N-(4-(3-aminopyrrolidin-1-yl)-3-chloro-7-fluoro-1-isopropyl-1H-indazol-5-yl)-1-(2,6-difluorophenyl)-6-oxo-1,6-dihydropyridazine-3-carboxamide]: the pIC50 was > 7.00.

As for `CC(C)n1nc(Cl)c2c(N3C[C@@H](C)[C@@H](N)C3)c(NC(=O)c3ccc(=O)n(-c4c(F)cccc4F)n3)ccc21` [Example 191, N-(4-((3R,4R)-3-amino-4-methylpyrrolidin-1-yl)-3-chloro-1-isopropyl-1H-indazol-5-yl)-1-(2,6-difluorophenyl)-6-oxo-1,6-dihydropyridazine-3-carboxamide], the pIC50 is > 7.00.

In the case of `Cc1nn(C(C)C)c2ccc(NC(=O)c3ccc(=O)n(-c4c(F)cccc4F)n3)c(N3C[C@@H](C)[C@@H](N)C3)c12` [Example 192, N-(4-((3R,4R)-3-amino-4-methylpyrrolidin-1-yl)-1-isopropyl-3-methyl-1H-indazol-5-yl)-1-(2,6-difluorophenyl)-6-oxo-1,6-dihydropyridazine-3-carboxamide], the pIC50 was > 7.00.

For `CC(C)n1ncc2c(N3C[C@@H](C)[C@@H](N)C3)c(NC(=O)c3ccc(=O)n(-c4c(F)cccc4F)n3)cc(F)c21` [Example 193, N-(4-((3R,4R)-3-amino-4-methylpyrrolidin-1-yl)-7-fluoro-1-isopropyl-1H-indazol-5-yl)-1-(2,6-difluorophenyl)-6-oxo-1,6-dihydropyridazine-3-carboxamide], the negative-log IC50 (pIC50) is > 7.00.

As for `CC(C)n1ncc2c(N3C[C@@H]4NCCO[C@H]4C3)c(NC(=O)c3ccc(=O)n(-c4c(F)cccc4F)n3)ccc21` [Example 194, 1-(2,6-difluorophenyl)-N-(4-((4aS,7aS)-hexahydropyrrolo[3,4-b][1,4]oxazin-6(2H)-yl)-1-isopropyl-1H-indazol-5-yl)-6-oxo-1,6-dihydropyridazine-3-carboxamide], the negative logarithm of the IC50 (pIC50) was > 7.00.

As for `Cc1nn(C(C)C)c2ccc(NC(=O)c3ccc(=O)n(-c4c(F)cccc4F)n3)c(N3CC[C@@H](N)C3)c12` [Example 195, (R)-N-(4-(3-aminopyrrolidin-1-yl)-1-isopropyl-3-methyl-1H-indazol-5-yl)-1-(2,6-difluorophenyl)-6-oxo-1,6-dihydropyridazine-3-carboxamide], the pIC50 was > 7.00.

With `CC(C)n1nc(F)c2c(N3C[C@@H](C)[C@@H](N)C3)c(NC(=O)c3ccc(=O)n(-c4c(F)cccc4F)n3)ccc21` [Example 198, N-(4-((3R,4R)-3-amino-4-methylpyrrolidin-1-yl)-3-fluoro-1-isopropyl-1H-indazol-5-yl)-1-(2,6-difluorophenyl)-6-oxo-1,6-dihydropyridazine-3-carboxamide], the negative-log IC50 (pIC50) was > 7.00.
